The values that follow come from patent publication US9024069B2, “NONOate derivatives and uses thereof” (Ironwood Pharmaceuticals, priority 2012, dated 2015).

Structures are written as SMILES.

One data set concerns normotensive rats. The data set is described as follows: Rat normotensive blood pressure model. It is filed as in vivo. The note with it: normotensive conscious SD rats, single oral dose 30 mg/kg, 6 hours monitoring; FIG. 6. The text has this:
36 male SD rats were allowed to acclimate for at least 3 days. After conditioning the rats were arterially cannulated and assigned to 4 treatment groups, with the goal of achieving n=6/group.
After the acclimation period, the rats were briefly anesthetized with inhaled isoflurane and implanted a small bore femoral artery cannula to permit CV monitoring under conscious unrestrained conditions as conducted in prior studies. 18 rats were cannulated per day on 2 consecutive days and allowed 2 days of post-operative recovery prior to CV testing. 12 rats per day were monitored for each of 2 consecutive daily test sessions.
On the morning of the test sessions, the rats were placed in individual bell jars and their femoral artery cannulas were attached to pressure transducers. CV monitoring consisted of continuously recording mean arterial pressure (MAP) and spot checking heart rate (HR; every 5 to 7 minutes) prior to and for 6 hours after a single oral treatment as in previous studies.
Also on the morning of testing, 4 oral treatments in 500 μl of 100% PEG 400 were formulated. The rats were allowed about 1 hour of equilibration prior to dosing. Once suitably equilibrated, each rat was dosed with an oral vehicle or a drug, delivered by standard gavage. The CV recording was continued over the 6-hour post-treatment interval, occasional small flushes of heparinized saline (˜0.1 mL; 20 units/mL) were administered into their arterial catheters in order to maintain recording fidelity.
At the conclusion of the 6-hour CV monitoring interval, a terminal ˜0.6 mL arterial blood sample was taken and the serum or plasma was processed.

Data set [1] in a line: Nitric oxide (NOx) level after oral dosing in male rats, Nitrate/Nitrite Colorimetric Assay. It is filed as in vivo, rat. To be noted: male SD rats, oral gavage; Fenofibrate 24.8 mg/kg, compounds 6, 7, 8 at 32, 34, 33.8 mg/kg; FIG. 2. The protocol: 15 male SD (Sprague Dawley) rats were allowed to acclimate for at least 3 days. Fenofibrate, compounds 6, 7, and 8 were administered via oral gavage at molar equivalent doses of 24.8, 32, 34, 33.8 mg/kg, respectively. Animals were fasted overnight and had their food replaced 4 hours after dosing. Compounds were formulated in 300 μL of 100% PEG400. Animals were euthanized under CO2 at the 24 hr time point. Plasma samples were taken for analytical determination of fenofibric acid from compounds in vacutainers containing sodium fluoride. Serum samples were taken for nitric oxide level determination in BD serum collection tubes.
Fenofibric acid was extracted from the plasma using an acetonitrile protein precipitation method. Samples were run on a Waters Aquity TQD LC-MS/MS and analyzed using the MassLynx software. Nitric Oxide levels were measured in serum using a Nitrate/Nitrite Colorimetric Assay Kit from Caymen Chemicals.

Another data set has as its system rat aortic ring. The data set is described as follows: Thoracic aortic rings assay (vasorelaxation of phenylephrine-contracted rings). To be noted: rat thoracic aortic rings contracted with 100 ng/mL phenylephrine; cumulative dosing; FIG. 3. It is filed as ex vivo tissue. As for the experimental part:
Thoracic aortic rings were dissected from anesthetized (isoflurane) male Sprague-Dawley rats weighing 275-299 g. Tissues were immediately transferred to ice-cold Krebs-Henseleit solution, which had been aerated with 95% O2 and 5% CO2 for 30 minutes. Following removal of connective tissue, aortic sections were cut into 4 rings (˜2 mm each) and suspended on 2 L-shaped hooks, with one hook fixed at the bottom of the tissue bath (Schuler Organ Bath, Harvard Apparatus) and the other connected to a force transducer (F30 Force Transducer, Harvard Apparatus). Baths contained Krebs Henseleit solution (10 mL) heated to 37° C. and aerated with 95% O2 and 5% CO2. Rings were brought to an initial tension of 0.3-0.5 g and gradually raised to a resting tension of 1.0 g over 60 minutes. Rings were rinsed with Krebs Henseleit solution (heated to 37° C. and aerated with 95% 02 and 5% CO2) at 15 minute intervals until a stable baseline was obtained. Rings were considered to be stable after a resting tension of 1.0 g was maintained (for approximately 10 minutes) without need for adjustment. Rings were then contracted with 100 ng/mL phenylephrine by adding 100 uL of a 10 μg/mL phenylephrine stock solution. Tissues achieving a stable contraction were then treated in a cumulative, dose dependent manner with test compounds prepared in dimethylsulfoxide (DMSO). In some cases, tissues were rinsed three times over a 5 minute period with Krebs-Heinseleit's solution (heated to 37° C. and aerated with 95% O2 and 5% CO2), allowed to stabilize at baseline, and then used for characterization of other test articles or DMSO effects. All data were collected using the HSE-ACAD software provided by Harvard Apparatus. Percent relaxation effects were calculated in Microsoft Excel using the recorded tension value of 100 ng/mL phenylephrine treatment as 0% inhibition and treatment with 100 μM 3-isobutyl-1-methylxanthine as 100% inhibition. EC50 values were calculated from concentration-response curves generated with GraphPad Prism Software. […]

In a further data set the test system is L-NAME hypertensive rats. In words: Rat L-NAME induced hypertension blood pressure model. To be noted: oral gavage, 6 hours monitoring, compound 8 at 10, 30, 60 mg/kg, Fenofibrate 49.6 mg/kg, FIGS. 7 and 8. It is filed as in vivo. The protocol:
L-NAME induced hypertension model was carried out at Pharmoptima. Based on the rats' projected average daily water intake, the NO synthase inhibitor L-NAME, L-NG-nitroarginine methyl ester, which induces hypertension, were dissolved in their drinking water so that the rats self-administered tested compounds for 2 weeks prior to study at the targeted daily L-NAME dosage. The rats' L-NAME/water solution was reformulated every other day to insure potency.
After 2 weeks of oral L-NAME preconditioning, the rats were anesthetized with inhaled isoflurane (3-4% in oxygen) and implanted a small bore femoral artery catheter to permit cardiovascular (CV) monitoring under conscious unrestrained conditions. A total of 36 rats (18 rats/day on two consecutive days) were prepared. The catheters were sealed with sodium heparin to maintain patency.
Allow 2 days of post-operative recovery prior to study, allowing full access to food and water (containing dissolved L-NAME) water.
On the study treatment day, […] (n=6×5 treatments) were set up in bell jars under routine non-fasted conditions. Start recording mean arterial pressure (MAP) and heart rate (HR) from this first set of cannulated rats as per previous studies conducted by PharmOptima. Once stable, the rats were dosed by oral gavage. CV data were recorded from the rats over the ensuing 6 hours. 3 arterial blood samples were taken per rat and the harvested plasma samples were frozen.

For data set [2], the system named is high fat, high cholesterol diet rats. The data set is described as follows: Rat high fat, high cholesterol diet model (VAP lipid analysis). It is filed as in vivo. To be noted: HFHC diet rats, once daily p.o. for seven days, compound 8 at 3, 10, 30 mg/kg, Fenofibrate at 2.2, 7.3, 22 mg/kg; for very low-density lipoprotein (VLDL) cholesterol: FIG. 4; for HDL: FIG. 5. The protocol: Compounds were tested for effects on cholesterol and lipid profiles in a rat high fat diet model for example as described in Ghibaudi et al. (2002) Obes Res 10:956-63, Ricci and Levin (2003) Am J Physiol Regul Integr Comp Physiol 285:R610-8, and Gao et al. (2002) 936:87-90. Alternatively, animals were fed either a normal diet or a chow supplemented with added fat and/or cholesterol as described in Krause et al (1994) Pharm Res VoI 29, No. 4, Nishina (1993) J of Lipid Res vol 43. and Gajda et al. (2007) Animal Lab News. Based on the specific chows used in these reports, animals were fed a diet consisting of 40% fat, 1% cholesterol, and 0.5% cholic acid (catalog #D01061201, Research Diets, New Brunswick, N.J. 08901).
After at least a week on this diet, animals (6-8/group) are dosed once daily perorally with 500 uL test compounds in PEG 400. Groups are dosed for at least one week before whole blood samples are taken for analysis. Blood serum is analyzed using Vertical Auto Profile (VAP; Atherotech, Inc., Birmingham, Ala.) analysis similar to as described in Kulkarni (2006) Clin Lab Med 26:787-802.
Fenofibrate (Sigma—Cat# F6020-5G, Lot#017K1401) was tested in this assay at 2.2, 7.3 and 22 mg/kg which were equimolar equivalents (for the fenofibric acid moiety) of Compound 8 dosed at 3, 10 and 30 mg/kg. In these experiments animals (n=6 per group) were fed a high fat high cholesterol chow (HFHC; 40% fat, 1% cholesterol, 0.5% cholic acid) diet for one week before test compound administration. Animals received either vehicle only (PEG 400) or test compound (compound 8 at 3, 10 or 30 mg/kg or fenofibrate at 2.2, 7.3 or 22 mg/kg) for seven days before whole blood samples were taken for analysis.

For the compound `CN(CCCCO)/[N+]([O-])=N/OCOC(=O)C(C)(C)Oc1ccc(C(=O)c2ccc(Cl)cc2)cc1` [Compound 7, (Z)-1-((2-(4-(4-chlorobenzoyl)phenoxy)-2-methylpropanoyloxy)methoxy)-3-(4-hydroxybutyl)-3-methyltriaz-1-ene 2-oxide], in the data set with normotensive rats, the blood pressure entry was “lowering blood pressure”. In addition, the “nitric oxide levels in the plasma upon dosing” value (“nitric oxide levels” below) in data set [1] is on record as “robust increase in nitric oxide levels”.
Take `O=[N+]([O-])O[C@H]1CO[C@H]2[C@@H]1OC[C@H]2O[N+](=O)[O-]` [ISDN, isosorbide dinitrate, reference compound]: in the data set on rat aortic ring, the vasorelaxant properties result was “active in this assay as a vasorelaxant in the micromolar range”. Besides, the blood pressure entry in the data set with L-NAME hypertensive rats is reported as “moderate blood pressure lowering effect”.
Turning to `CC(C)OC(=O)C(C)(C)Oc1ccc(C(=O)c2ccc(Cl)cc2)cc1` [Fenofibrate, 2-[4-(4-chlorobenzoyl)phenoxy]-2-methyl-propanoic acid, 1-methylethyl ester, reference compound], in data set [2], the “very low-density lipoprotein (VLDL) cholesterol” value is “decreases in VLDL” and the HDL entry is “increases in HDL”. Further, the “nitric oxide levels” value in data set [1] is “no increase in nitric oxide”. The blood pressure entry in the data set with L-NAME hypertensive rats was “did not lower blood pressure”.
Regarding `CN(CCO)/[N+]([O-])=N/OCOC(=O)C(C)(C)Oc1ccc(C(=O)c2ccc(Cl)cc2)cc1` [Compound 6, (Z)-1-((2-(4-(4-chlorobenzoyl)phenoxy)-2-methylpropanoyloxy)methoxy)-3-(2-hydroxyethyl)-3-methyltriaz-1-ene 2-oxide], in the data set with normotensive rats, the blood pressure result is given as “lowering blood pressure”. The vasorelaxant properties entry in the data set on rat aortic ring was “potent vasorelaxant properties in the nM range”. The “nitric oxide levels” value in data set [1] was “robust increase in nitric oxide levels”.
For `CC(C)(Oc1ccc(C(=O)c2ccc(Cl)cc2)cc1)C(=O)OCO/N=[N+](\[O-])N1CCC[C@H]1CO` [Compound 8, (S,Z)-2-((2-(4-(4-chlorobenzoyl)phenoxy)-2-methylpropanoyloxy)methoxy)-1-(2-(hydroxymethyl)pyrrolidin-1-yl)diazene oxide], in data set [2], the “very low-density lipoprotein (VLDL) cholesterol” value was “decreases in very low-density lipoprotein (VLDL) cholesterol” and the HDL result was “dose related increases in HDL”. Further, the blood pressure entry in the data set on normotensive rats was “lowering blood pressure”. Moreover, the vasorelaxant properties entry with rat aortic ring is “potent vasorelaxant properties in the nM range”. Moreover, the “nitric oxide levels” value in data set [1] is on record as “robust increase in nitric oxide levels”. Besides, in the data set on L-NAME hypertensive rats, the blood pressure entry is on record as “lowered blood pressure in an L-NAME model of hypertension in a dose responsive manner”.
